Measurements from US20230123534A1, “LIPIDS FOR LIPID NANOPARTICLE DELIVERY OF ACTIVE AGENTS” (Acuitas Therapeutics, Inc., priority 2019, published 2023).
Like-named read-outs stand apart in the source and are kept apart here.

Experiments:
[1] = system: luciferase expression in the liver; experiment: In vivo luciferase mRNA expression rodent model (liver luciferase after tail vein injection of FLuc mRNA lipid nanoparticles); parameters: species or system mice; settings: liver 4 hours after administration, FLuc mRNA (L-6107) LNP 50% cationic lipid/10% DSPC/38.5% cholesterol/1.5% PEG-DMG; for Liver Luc @ 0.3 mg/kg dose: 0.3 mg mRNA/kg; for Liver Luc @ 1.0 mg/kg dose: 1.0 mg mRNA/kg
Experimental: Lipid nanoparticles were prepared and tested according to the general procedures described in PCT Pub. Nos. WO 2015/199952 and WO 2017/004143, the full disclosures of which are incorporated herein by reference. Briefly, cationic lipid, DSPC, cholesterol and PEG-lipid were solubilized in ethanol at a molar ratio of about 50:10:38.5:1.5 or about 47.5:10:40.8:1.7. Lipid nanoparticles (LNP) were prepared at a total lipid to mRNA weight ratio of approximately 10:1 to 30:1. The mRNA is diluted to 0.2 mg/mL in 10 to 50 mM citrate or acetate buffer, pH 4. Syringe pumps were used to mix the ethanolic lipid solution with the mRNA aqueous solution at a ratio of about 1:5 to 1:3 (vol/vol) with total flow rates above 15 mL/min. The ethanol was then removed and the external buffer replaced with PBS by dialysis. Finally, the lipid nanoparticles were filtered through a 0.2 µm pore sterile filter. Lipid nanoparticle particle size was approximately 55-95 nm diameter, and in some instances approximately 70-90 nm diameter as determined by quasi-elastic light scattering using a Malvern Zetasizer Nano ZS (Malvern, UK).
Studies were performed in 6-8 week old female C57BL/6 mice (Charles River) or 8-10 week old CD-1 (Harlan) mice (Charles River) according to guidelines established by an institutional animal care committee (ACC) and the Canadian Council on Animal Care (CCAC). Varying doses of mRNA-lipid nanoparticle were systemically administered by tail vein injection and animals euthanized at a specific time point (e.g., 4 hours) post-administration. Liver and spleen were collected in pre-weighed tubes, weights determined, immediately snap frozen in liquid nitrogen and stored at -80° C. until processing for analysis.
For liver, approximately 50 mg was dissected for analyses in a 2 mL FastPrep tubes (MP Biomedicals, Solon OH). ¼” ceramic sphere (MP Biomedicals) is added to each tube and 500 µL of Glo Lysis Buffer - GLB (Promega, Madison Wl) equilibrated to room temperature is added to liver tissue. Liver tissues were homogenized with the FastPrep24 instrument (MP Biomedicals) at 2 × 6.0 m/s for 15 seconds. Homogenate was incubated at room temperature for 5 minutes prior to a 1:4 dilution in GLB and assessed using SteadyGlo Luciferase assay system (Promega). Specifically, 50 µL of diluted tissue homogenate was reacted with 50 µL of SteadyGlo substrate, shaken for 10 seconds followed by 5 minute incubation and then quantitated using a CentroXS^3 LB 960 luminometer (Berthold Technologies, Germany). The amount of protein assayed was determined by using the BCA protein assay kit (Pierce, Rockford IL). Relative luminescence units (RLU) were then normalized to total µg protein assayed. To convert RLU to ng luciferase a standard curve was generated with QuantiLum Recombinant Luciferase (Promega).
The FLuc mRNA (L-6107 or L-7202) from Trilink Biotechnologies will express a luciferase protein, originally isolated from the firefly, photinus pyralis. FLuc is commonly used in mammalian cell culture to measure both gene expression and cell viability. It emits bioluminescence in the presence of the substrate, luciferin. This capped and poly-adenylated mRNA was fully substituted with respect to uridine and/or cytidine nucleosides.
The cationic lipids shown in Table 2 have previously been tested with nucleic acids. For comparative purposes, these lipids were also used to formulate lipid nanoparticles containing the FLuc mRNA (L-6107) using an in line mixing method, as described in Example 1 and in PCT/US10/22614, which is hereby incorporated by reference in its entirety. Lipid nanoparticles were formulated using the following molar ratio: 50% Cationic lipid / 10% distearoylphosphatidylcholine (DSPC) / 38.5% Cholesterol / 1.5% PEG lipid (“PEG-DMG”, i.e., 1-(monomethoxy-polyethyleneglycol)-2,3-dimyristoylglycerol, with an average PEG molecular weight of 2000). […]

[2] = system: luciferase expression in the liver; experiment: as above; parameters: species or system mice; settings: 0.5 mg mRNA/kg, liver 4 hours after administration, LNP 50% cationic lipid/10% DSPC/38.5% cholesterol/1.5% PEG-DMA or 47.5/10/40.7/1.8
[3] = Determination of pKa of formulated lipids (TNS fluorescence assay in lipid nanoparticles); type: physicochemical
Experimental: As described elsewhere, the pKa of formulated cationic lipids is correlated with the effectiveness of LNPs for delivery of nucleic acids (see Jayaraman et al, Angewandte Chemie, International Edition (2012), 51(34), 8529-8533; Semple et al, Nature Biotechnology 28, 172-176 (2010)). […] Lipid nanoparticles comprising cationic lipid/DSPC/cholesterol/PEG-lipid (50/10/38.5/1.5 mol%) in PBS at a concentration of 0.4 mM total lipid were prepared using the in-line process as described in Example 1. TNS was prepared as a 100 µM stock solution in distilled water. Vesicles were diluted to 24 µM lipid in 2 mL of buffered solutions containing, 10 mM HEPES, 10 mM MES, 10 mM ammonium acetate, 130 mM NaCl, where the pH ranged from 2.5 to 11. An aliquot of the TNS solution was added to give a final concentration of 1 µM and following vortex mixing fluorescence intensity was measured at room temperature in a SLM Aminco Series 2 Luminescence Spectrophotometer using excitation and emission wavelengths of 321 nm and 445 nm. A sigmoidal best fit analysis was applied to the fluorescence data and the pKa was measured as the pH giving rise to half-maximal fluorescence intensity.

[4] = Table 3, cationic lipid formulated in LNP, TNS fluorescence assay, read-out: pKa

| SMILES | Liver Luc @ 0.3 mg/kg dose [1] | Liver Luc @ 1.0 mg/kg dose [1] | Liver Luc @ 0.5 mg/kg (ng luc/g liver) [2] | also measured |
| --- | --- | --- | --- | --- |
| CCCCCC/C=C\COC(=O)CCCCCCCC(CCCCCCCC(=O)OC/C=C\CCCCCC)OC(=O)CCCN(C)C [319 (2% PEG)] | 258 ± 67 ng luciferase/g liver | 681 ± 203 ng luciferase/g liver | – | – |
| CCCCC/C=C\C/C=C\CCCCCCCCN(CCCCCCCC/C=C\C/C=C\CCCCC)CCN(C)C [A] | 77 ± 40 ng luciferase/g liver | 203 ± 122 ng luciferase/g liver | – | – |
| CCCCC(CC)C(=O)OCCCCCCCCCC(CCCCCCCCCOC(=O)C(CC)CCCC)OC(=O)CCCN(C)C (stereo not shown) [Compound 137] | 281 ± 203 ng luciferase/g liver | 588 ± 303 ng luciferase/g liver | – | – |
| CCCCCCCCCCN(C(=O)CCCCN(C)C)C(CCCCCCCCC(=O)OCC(CCCC)CCCCCC)CCCCCCCCC(=O)OCC(CCCC)CCCCCC (stereo not shown) [Compound I-7, BIS(2-BUTYLOCTYL) 10-(N-DECYL-5-(DIMETHYLAMINO)PENTANAMIDO)NONADECANEDIOATE] | – | – | 2420 ± 1079 ng luc/g liver | – |
| CCCCCCCCCCN(C(=O)CCCCN(CC)CC)C(CCCCCCCCC(=O)OCC(CCCC)CCCCCC)CCCCCCCCC(=O)OCC(CCCC)CCCCCC (stereo not shown) [Compound I-8, BIS(2-BUTYLOCTYL) 10-(N-DECYL-5-(DIETHYLAMINO)PENTANAMIDO)NONADECANEDIOATE] | – | – | 7384 ± 1916 ng luc/g liver | – |
| CCCCCCCCCCN(C(=O)CCCCN1CCCC1)C(CCCCCCCCC(=O)OCC(CCCC)CCCCCC)CCCCCCCCC(=O)OCC(CCCC)CCCCCC (stereo not shown) [Compound I-9, BIS(2-BUTYLOCTYL) 10-(N-DECYL-5-(PYRROLIDIN-1-YL)PENTANAMIDO)NONADECANEDIOATE] | – | – | 2223 ± 777 ng luc/g liver | – |
| CCCCCCCCCCN(C(=O)CCCN(C)C)C(CCCCCC(=O)OCC(CCCCCC)CCCCCCCC)CCCCCC(=O)OCC(CCCCCC)CCCCCCCC (stereo not shown) [Compound I-16, BIS(2-HEXYLDECYL) 7-(N-DECYL-4-(DIMETHYLAMINO)BUTANAMIDO)TRIDECANEDIOATE] | – | – | 4678 ± 1243 ng luc/g liver | – |
| CCCCCCCCCCN(C(=O)CCCN(C)C)C(CCCCCCCCC(=O)OCC(CCCC)CCCCCC)CCCCCCCCC(=O)OCC(CCCC)CCCCCC (stereo not shown) [Compound I-18, BIS(2-BUTYLOCTYL) 10-(N-DECYL-4-(DIMETHYLAMINO)BUTANAMIDO)NONADECANEDIOATE] | – | – | 13301 ± 8071 ng luc/g liver | – |
| CCCCCCCCCCN(C(=O)CCCN1CCCC1)C(CCCCCC(=O)OCC(CCCCCC)CCCCCCCC)CCCCCC(=O)OCC(CCCCCC)CCCCCCCC (stereo not shown) [Compound I-29, BIS(2-HEXYLDECYL) 7-(N-DECYL-4-(PYRROLIDIN-1-YL)BUTANAMIDO)TRIDECANEDIOATE] | – | – | 5551 ± 1650 ng luc/g liver | – |
| CCCCCCC(CCCC)COC(=O)CCCCCCCCC(CCCCCCCCC(=O)OCC(CCCC)CCCCCC)N(CC(CC)CCCC)C(=O)CCCN(C)C (stereo not shown) [Compound I-30, BIS(2-BUTYLOCTYL) 10-(4-(DIMETHYLAMINO)-N-(2-ETHYLHEXYL)BUTANAMIDO)NONADECANEDIOATE] | – | – | 13614 ± 3348 ng luc/g liver | pKa ([3]; Table 1, cationic lipid formulated in LNP (cationic lipid/DSPC/cholesterol/PEG-lipid 50/10/38.5/1.5 mol%), TNS fluorescence, pH giving half-maximal fluorescence): 6.47; pKa ([3]; Table 3, cationic lipid formulated in LNP, TNS fluorescence assay): 6.47 |
| CCCCCCCCCCN(C(=O)CCCN(C)C)C(CCCCCCCCCOC(=O)C(CCCC)CCCCCC)CCCCCCCCCOC(=O)C(CCCC)CCCCCC (stereo not shown) [Compound I-32, 10-(4-(DIMETHYLAMINO)-N-DECYLBUTANAMIDO)NONADECANE-1,19-DIYL BIS(2-BUTYLOCTANOATE)] | – | – | 4091 ± 713 ng luc/g liver | pKa ([3]; Table 1, cationic lipid formulated in LNP (cationic lipid/DSPC/cholesterol/PEG-lipid 50/10/38.5/1.5 mol%), TNS fluorescence, pH giving half-maximal fluorescence, read-out: pKa): 6.41 |
| CCCCCCCCCCN(C(=O)CCN1CCCC1)C(CCCCCCCCC(=O)OCC(CCCC)CCCCCC)CCCCCCCCC(=O)OCC(CCCC)CCCCCC (stereo not shown) [Compound I-33, BIS(2-BUTYLOCTYL) 10-(N-DECYL-3-(PYRROLIDIN-1-YL)PROPANAMIDO)NONADECANEDIOATE] | – | – | 1304 ± 278 ng luc/g liver | – |
| CCCCCCCCCCN(C(=O)CCN(C)C)C(CCCCCC(=O)OCC(CCCCCC)CCCCCCCC)CCCCCC(=O)OCC(CCCCCC)CCCCCCCC (stereo not shown) [Compound I-35, BIS(2-HEXYLDECYL) 7-(N-DECYL-3-(DIMETHYLAMINO)PROPANAMIDO)TRIDECANEDIOATE] | – | – | 14312 ± 4174 ng luc/g liver | pKa [3, 4]: 6.39 |
| CCCCCCCCC(CCCCCC)COC(=O)CCCCCC(CCCCCC(=O)OCC(CCCCCC)CCCCCCCC)N(CCCCCC(=O)OCC(CC)CCCC)C(=O)CCN(C)C (stereo not shown) [Compound I-36, BIS(2-HEXYLDECYL) 7-(3-(DIMETHYLAMINO)-N-(6-((2-ETHYLHEXYL)OXY)-6-OXOHEXYL)PROPANAMIDO)TRIDECANEDIOATE] | – | – | 10377 ± 1435 ng luc/g liver | pKa [3, 4]: 6.55 |
| CCCCCCCCCCN(C(=O)CCCN(C)C)C(CCCCCCCCC(=O)OC(CCCCCC)CCCCCC)CCCCCCCCC(=O)OC(CCCCCC)CCCCCC [Compound I-37, DI(TRIDECAN-7-YL) 10-(N-DECYL-4-(DIMETHYLAMINO)BUTANAMIDO)NONADECANEDIOATE] | – | – | 15234 ± 5248 ng luc/g liver | pKa [3, 4]: 6.3 |
| CCCCC/C=C\C/C=C\CCCCCCCCOCC(CN(C)C)OCCCCCCCC/C=C\C/C=C\CCCCC (stereo not shown) [DLinDMA] | 13 ± 3 ng luciferase/g liver | 67 ± 20 ng luciferase/g liver | – | – |
| CCCCC/C=C\C/C=C\CCCCCCCCC(CCCCCCCC/C=C\C/C=C\CCCCC)OC(=O)CCN(C)C [MC2] | 4 ± 1 ng luciferase/g liver | – | – | – |
| CCCCC/C=C\C/C=C\CCCCCCCCC(CCCCCCCC/C=C\C/C=C\CCCCC)OC(=O)CCCN(C)C [MC3] | – | 757 ± 528 ng luciferase/g liver | – | – |
| CCCCC/C=C\C/C=C\CCCCCCCCC(CCCCCCCC/C=C\C/C=C\CCCCC)OC(=O)CCCCN(C)C [MC4] | 41 ± 10 ng luciferase/g liver | – | – | – |
| CCCCC/C=C\C/C=C\CCCCCCCCC1(CCCCCCCC/C=C\C/C=C\CCCCC)OC[C@@H](CCN(C)C)O1 [XTC2] | 80 ± 28 ng luciferase/g liver | 237 ± 99 ng luciferase/g liver | – | – |
